Measurements: patent US11685747B2, “Compounds that inhibit MCL-1 protein” (AMGEN INC., priority 2014, dated 2023)

Key:
[1] = target: T1, recombinant human Mcl-1 (Homo sapiens, UniProt Q07820); assay: Cell free Mcl-1:Bim affinity assay (Mcl-1 HTRF, TR-FRET); format: binding; conditions: inhibition of Mcl-1/Bim interaction
T1 construct: C-terminally 6×His tagged Mcl-1 containing residues 171-327; made in house
Experimental: Cell Free Mcl-1:Bim Affinity Assay (Mcl-1 HTRF)
The inhibition of the Mcl-1/Bim interaction was measured using a time-resolved fluorescence resonance energy transfer (TR-FRET) assay. […] A biotinylated peptide derived from human Bim (residues 51-76) was purchased from CPC Scientific (San Jose, Calif.). The TR-FRET assay was conducted in a 384-well white OptiPlate™ (PerkinElmer, Waltham, Mass.) in a total volume of 40 μL. […] The reaction plates were further incubated overnight and then were read on an Envision® multimode reader (PerkinElmer). […] The IC50 values of test compounds were determined from duplicate data by analyzing competition curves using a four-parameter sigmoidal model in GraphPad Prism (GraphPad Software, San Diego, Calif.) or in Genedata Screener® (Genedata, Basel, Switzerland).

[2] = target: T2, Mcl-1/Bak protein-protein interactions (Homo sapiens, UniProt Q07820); assay: Cell-based split luciferase complementation assay; conditions: HEK 293 M cells, serum-free, 4 h
T2 construct: expressed in transfected cells; host or cells: HEK 293 M cells, transient transfection
Experimental: Cell-Based Assay (Split Luciferase)
A split luciferase complementation assay was developed to determine the inhibition of Mcl-1/Bak protein-protein interactions in cells. […] Transient transfection was performed using Lipofectamine® LTX/Plus™ reagent (Life Technologies, Grand Island, N.Y.). 24 h after transfection, cells were collected using non-enzyme based cell dissociation buffer StemPro® Accutase® (Life Technologies), and resuspended in serum-free Opti-MEM® (Life Technologies). Cells were then seeded into assay plates with serially diluted test compounds in 0.3% DMSO at density of a 5000 cells/well. Cells were then incubated for 4 h at 37° C. in a cell culture incubator supplement with 5% CO2. Test plates were equilibrated to room temperate for 30 min before addition of 30 μL Steady-Glo® Luciferase assay reagent (Promega, Madison, Wis.) into each test well. Luminescence was determined using an EnVision® Multilabel plate reader 25 min after the addition of detection reagent. IC50 values were then calculated with Xlfit using a logistical 4-parameter fit model in GraphPad Prism (GraphPad Software, San Diego, Calif.) or in Genedata Screener® (Genedata, Basel, Switzerland).

[3] = system: OPM-2; assay: Cell viability assay (OPM-2 10 FBS, CellTiter-Glo); format: cell-based, human; conditions: OPM-2 cells
Experimental: Cell Viability Assay (OPM-2 10 FBS)
Cells were seeded into 384-well plates at 3000 cells/well density in complete growth medium containing 10% FBS, and incubated for 16 h with serially diluted test compounds in a 37° C. incubator with 5% CO2. Cell viability was tested using CellTiter-Glo® assay (Promega, Madison, Wis.) according to the manufacturer recommendations. Luminescence was determined using an EnVision® Multilabel plate reader 25 min after the addition of detection reagent. IC50 values were then calculated with Xlfit using a logistical 4-parameter fit model in GraphPad Prism (GraphPad Software, San Diego, Calif.) or in Genedata Screener® (Genedata, Basel, Switzerland).

T2 sequence (Q07820 whole entry): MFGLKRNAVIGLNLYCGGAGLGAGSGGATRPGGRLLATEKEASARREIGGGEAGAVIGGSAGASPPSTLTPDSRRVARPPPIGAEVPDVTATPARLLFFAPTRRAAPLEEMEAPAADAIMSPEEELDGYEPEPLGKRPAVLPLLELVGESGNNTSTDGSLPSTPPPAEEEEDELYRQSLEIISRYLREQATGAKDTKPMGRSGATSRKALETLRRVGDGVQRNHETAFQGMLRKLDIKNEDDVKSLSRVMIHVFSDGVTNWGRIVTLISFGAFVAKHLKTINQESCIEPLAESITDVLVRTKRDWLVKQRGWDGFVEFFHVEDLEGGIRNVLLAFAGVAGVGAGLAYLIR
T1 sequence (Q07820 171-327): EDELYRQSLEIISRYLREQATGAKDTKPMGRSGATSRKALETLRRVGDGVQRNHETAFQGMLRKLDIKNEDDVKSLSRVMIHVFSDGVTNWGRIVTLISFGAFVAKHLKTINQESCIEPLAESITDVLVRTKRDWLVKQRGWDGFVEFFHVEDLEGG

| IC50 [1] [nM] | IC50 [2] [nM] | Compound | IC50 ([3]; 16 h) [nM] | IC50 ([3]; Homo sapiens, OPM-2, 16 h) [nM] |
| --- | --- | --- | --- | --- |
| 0.514 | 23.4 | C[C@H]1C/C=C/[C@H](O)[C@@H]2CC[C@H]2CN2C[C@@]3(CCCc4cc(Cl)ccc43)COc3ccc(cc32)C(=O)NS(=O)(=O)[C@@H]1CC1CC1 (single isomer, unassigned) [Example 60] | 158 |  |
| 0.248 | 60 | C[C@H]1C/C=C/[C@H](O)[C@@H]2CC[C@H]2CN2C[C@@]3(CCCc4cc(Cl)ccc43)COc3ccc(cc32)C(=O)NS(=O)(=O)[C@@H]1C1CC1 (single isomer, unassigned) [Example 47] | 284 |  |
| 0.852 | 163 | CC1(C)C/C=C/[C@H](O)[C@@H]2CC[C@H]2CN2C[C@@]3(CCCc4cc(Cl)ccc43)COc3ccc(cc32)C(=O)NS(=O)(=O)C1 [Example 1, (1S,3′R,6′R,7′S,8′E)-6-Chloro-7′-Hydroxy-11′,11′-Dimethyl-3,4-Dihydro-2H,15′H-Spiro[Naphthalene-1,22′-[20]Oxa[13]Thia[1,14]Diazatetracyclo[14.7.2.0^3,6.0^19,24]Pentacos A[8,16,18,24]Tetraen]-15′-One 13′,13′-Dioxide] |  | 1880 |
| 7.02 | 872 | CC[C@@H]1C/C=C/[C@H](O)[C@@H]2CC[C@H]2CN2C[C@@]3(CCCc4cc(Cl)ccc43)COc3ccc(cc32)C(=O)NS(=O)(=O)C1 (single isomer, unassigned) [Example 33] |  | 14900 |
| 13.6 | 318 | C[C@@H]1C/C=C/[C@H](O)[C@@H]2CC[C@H]2CN2C[C@@]3(CCCc4cc(Cl)ccc43)COc3ccc(cc32)C(=O)NS(=O)(=O)[C@H]1CC1CCC1 (single isomer, unassigned) [Example 64] | 8630 |  |
| 0.917 | 48.2 | C[C@H]1C/C=C/[C@H](O)[C@@H]2CC[C@H]2CN2C[C@@]3(CCCc4cc(Cl)ccc43)COc3ccc(cc32)C(=O)NS(=O)(=O)[C@@H]1CC1CC1 (single isomer, unassigned) [Example 58] | 496 |  |
| 0.317 | 46.2 | CC(C)[C@@H]1[C@H](C)C/C=C/[C@H](O)[C@@H]2CC[C@H]2CN2C[C@@]3(CCCc4cc(Cl)ccc43)COc3ccc(cc32)C(=O)NS1(=O)=O (single isomer, unassigned) [Example 49] | 184 |  |
| 1.12 | 77.3 | COCCO[C@H]1/C=C/CC[C@@H](C)S(=O)(=O)NC(=O)c2ccc3c(c2)N(C[C@@H]2CC[C@H]21)C[C@@]1(CCCc2cc(Cl)ccc21)CO3 [Example 76, (1S,3′R,6′R,7′S,8′E,12′R)-6-Chloro-7′-(2-Methoxyethoxy)-12′-Methyl-3,4-Dihydro-2H,15′H-Spiro[Naphthalene-1,22′-[20]Oxa[13]Thia[1,14]Diazatetracyclo[14.7.2.0^3,6.0^19,24]Pentacos A[8,16,18,24]Tetraen]-15′-One 13′,13′-Dioxide] |  | 668 |
| 0.638 | 34.7 | CCC[C@@H]1[C@@H](C)C/C=C/[C@H](O)[C@@H]2CC[C@H]2CN2C[C@@]3(CCCc4cc(Cl)ccc43)COc3ccc(cc32)C(=O)NS1(=O)=O [Example 70, (1S,3′R,6′R,7′S,8′E,11′S,12′R)-6-Chloro-7′-Hydroxy-11′-Methyl-12′-Propyl-3,4-Dihydro-2H,15′H-Spiro[Naphthalene-1,22′-[20]Oxa[13]Thia[1,14] Diazatetracyclo [14.7.2.0^3,6.0^19,24]Pentacosa [8,16,18,24]Tetraen]-15′-One 13′,13′-Dioxide] |  | 238 |
| 0.441 | 34.1 | CO[C@H]1/C=C/CC[C@@H](C)S(=O)(=O)NC(=O)c2ccc3c(c2)N(C[C@@H]2CC[C@H]21)C[C@@]1(CCCc2cc(Cl)ccc21)CO3 [Example 13, (1S,3′R,6′R,7′S,8′E,12′R)-6-Chloro-7′-Methoxy-12′-Methyl-3,4-Dihydro-2H,15′H-Spiro[Naphthalene-1,22′-[20]Oxa[13]Thia[1,14]Diazatetracyclo[14.7.2.0^3,6.0^19,24]Pentacos A[8,16,18,24]Tetraen]-15′-One 13′,13′-Dioxide] |  | 353 |
| 2.08 | 107 | CO[C@H]1CCCC[C@@H](C)S(=O)(=O)NC(=O)c2ccc3c(c2)N(C[C@@H]2CC[C@H]21)C[C@@]1(CCCc2cc(Cl)ccc21)CO3 [Example 16, (1S,3′R,6′R,7′S,12′R)-6-Chloro-7′-Methoxy-12′-Methyl-3,4-Dihydro-2H,15′H-Spiro[Naphthalene-1,22′-[20]Oxa[13]Thia[1,14]Diazatetracyclo[14.7.2.0^3,6.0^19,24]Pentacos A[16,18,24]Trien]-15′-One 13′,13′-Dioxide] |  | 4340 |
| 0.38 | 26.5 | C[C@@H]1C/C=C/[C@H](O)[C@@H]2CC[C@H]2CN2C[C@@]3(CCCc4cc(Cl)ccc43)COc3ccc(cc32)C(=O)NS(=O)(=O)C1 (single isomer, unassigned) [Example 30] | 161 |  |
| 0.423 | 30.7 | C[C@@H]1C/C=C/[C@H](O)[C@@H]2CC[C@H]2CN2C[C@@]3(CCCc4cc(Cl)ccc43)COc3ccc(cc32)C(=O)NS(=O)(=O)[C@H]1CC1CCC1 (single isomer, unassigned) [Example 63] | 183 |  |
| 5.3 | 376 | CC(C)C[C@@H]1[C@@H](C)C/C=C/[C@H](O)[C@@H]2CC[C@H]2CN2C[C@@]3(CCCc4cc(Cl)ccc43)COc3ccc(cc32)C(=O)NS1(=O)=O (single isomer, unassigned) [Example 65] | 3280 |  |
| 0.647 | 50.4 | CC[C@@H]1CC/C=C/[C@H](OC)[C@@H]2CC[C@H]2CN2C[C@@]3(CCCc4cc(Cl)ccc43)COc3ccc(cc32)C(=O)NS1(=O)=O [Example 20, (1S,3′R,6′R,7′S,8′E,12′R)-6-Chloro-12′-Ethyl-7′-Methoxy-3,4-Dihydro-2H,15′H-Spiro[Naphthalene-1,22′-[20]Oxa[13]Thia[1,14]Diazatetracyclo[14.7.2.0^3,6.0^19,24]Pentacos A[8,16,18,24]Tetraen]-15′-One 13′,13′-Dioxide] |  | 390 |
| 0.447 | 57.5 | C[C@@H]1[C@@H](C)CCC[C@H](O)[C@@H]2CC[C@H]2CN2C[C@@]3(CCCc4cc(Cl)ccc43)COc3ccc(cc32)C(=O)NS1(=O)=O [Example 6, (1S,3′R,6′R,7′S,11′S,12′R)-6-Chloro-7′-Hydroxy-11′,12′-Dimethyl-3,4-Dihydro-2H,15′H-Spiro[Naphthalene-1,22′-[20]Oxa[13]Thia[1,14]Diazatetracyclo[14.7.2.0^3,6.0^19,24]Pentacos A[16,18,24]Trien]-15′-One 13′,13′-Dioxide] |  | 394 |
| 7.68 | 297 | CC1(C)CC/C=C/[C@H](O)[C@@H]2CC[C@H]2CN2C[C@@]3(CCCc4cc(Cl)ccc43)COc3ccc(cc32)C(=O)NS1(=O)=O (single isomer, unassigned) [Example 40] |  | 7300 |
| 0.437 | 37.7 | CC[C@H]1C/C=C/[C@H](O)[C@@H]2CC[C@H]2CN2C[C@@]3(CCCc4cc(Cl)ccc43)COc3ccc(cc32)C(=O)NS(=O)(=O)C1 (single isomer, unassigned) [Example 34] |  | 253 |

| Compound | IC50 [1] [nM] | IC50 [2] [nM] | IC50 ([3]; 16 h) [nM] | IC50 ([3]; Homo sapiens, OPM-2, 16 h) [nM] |
| --- | --- | --- | --- | --- |
| CCCCO[C@H]1/C=C/C[C@H](C)[C@@H](C)S(=O)(=O)NC(=O)c2ccc3c(c2)N(C[C@@H]2CC[C@H]21)C[C@@]1(CCCc2cc(Cl)ccc21)CO3 [Example 73, (1S,3′R,6′R,7′S,8′E,11′S,12′R)-7′-Butoxy-6-Chloro-11′,12′-Dimethyl-3,4-Dihydro-2H,15′H-Spiro[Naphthalene-1,22′ [20]Oxa[13]Thia[1,14]Diazatetracyclo[14.7.2.0^3,6.0^19,24]Pentacos A[8,16,18,24]Tetraen]-15′-One 13′,13′-Dioxide] | 0.367 | 34.4 |  | 174 |
